Data published in patent US20060167109A1, “Methods of reducing rhinovirus contagion and related compositions” (priority 2002, published 2006).

How the values were obtained:
log P = format: physicochemical
human plasma proteins = assay: Plasma protein binding; format: in vitro ADME
[1] = Repeated dose pharmacokinetics, clinical dosing regimen; format: in vivo, human; conditions: 400 mg TID for 5 days
Protocol: Plasma accumulation of pleconaril was modest (approximately two fold) when pleconaril was administered according to the clinical dosing regimen (400 mg TID for 5 days). The long terminal half-life had only a modest influence on pleconaril plasma concentration-time profiles for the clinical dosing regimen. The repeated dose pharmacokinetic profile of pleconaril was predictable from single dose data and, thus, the pharmacokinetic profile of pleconaril was time independent (FIG. 2).

[2] = Rat tissue distribution studies; format: in vivo; conditions: estimated
Protocol: A 400 mg dose of pleconaril maintains antiviral concentrations at or above the concentration that inhibits 90% of the protoype HRV serotypes (90% Minimal Inhibitory Concentration or mic90) for a significant portion of the dosing interval after the first dose of pleconaril. A nasal tissue to plasma concentration ratio of five was estimated for pleconaril from rat tissue distribution studies.

HRV3 [3] = assay: Time of drug addition; format: cell-based, human rhinovirus
Protocol: To determine the stage in the virus replication cycle that is affected by pleconaril, time of drug addition studies were conducted. Pleconaril was added to cells either during viral attachment or at various times thereafter. Viral replication was allowed to proceed for a single cycle of growth (10-12 hours), at which time the cells were lysed by a freeze-thaw cycle, residual pleconaril was removed by chloroform extraction, and virus yield was determined in the cytopathic effect assay. A 2 μM concentration of pleconaril inhibited greater than 90% of the yield of HRV3 from a single cycle of growth if present during the virus attachment period.
Twenty-four well plates (Costar 3524) of HeLa cells were infected in duplicate with 250 μL of HRV3 in M199 medium with 5% FBS at a multiplicity of infection (MOI) of approximately 1 PFU/cell for 1 hour at room temperature. During a treatment (the “−1 h” timepoint), one set of duplicate wells for each virus received 2 μM pleconaril, while the remaining wells received DMSO (0.5% final concentration). After attachment, the cells were washed twice with 1 mL of DPBS, and then overlaid with fresh medium. Pleconaril (2 μM final concentration) was added to the wells at the indicated times. The plates were incubated at 33° C. (HRV3) for 10 hours, at which time they were frozen at −80° C. […]

HRV serotype 14 = assay: Reversibility of pleconaril binding; format: cell-based, human rhinovirus
Protocol: (§1) The first question presented is whether pleconaril could bind to human rhinoviruses irreversibly. Various HRVs were incubated overnight at 4° C. with pleconaril at a concentration approximately 10 times the IC50 value. Parallel samples were incubated in medium with 0.5% dimethyl sulfoxide (DMSO) alone. The next day, samples were diluted 10,000-fold into pleconaril-free medium and incubated an additional 24 hrs at 4° C., followed by titration by plaque assay.
(§2) After 24 hours, virus samples were diluted 10,000-fold in culture medium and incubated an additional 24 hours at 4° C. Virus titers in the DMSO- and pleconaril-treated samples were then determined by plaque assay in the appropriate cell line as described below.
(§3) In some experiments, virus titers were determined by plaque assay. Cells in 6 well plates were infected with 1 mL of 10-fold dilutions of virus in duplicate for 1 hour at the appropriate incubation temperature. The inoculum was then removed and the cells were overlaid with 3 mL of agarose overlay medium (Eagles minimum essential medium (Life Technologies, Grand Island, N.Y.) with 50 mM Hepes buffer, pH 7.2, 5% FBS, antibiotics, and 1.5% SeaPlaque (HRVs)). The HRV overlay medium was further supplemented with 30 mM MgCl2 and 15 μg/mL DEAE dextran. […] After rinsing and drying, plaques were read manually.

HRV serotype 1A = assay: Reversibility of pleconaril binding; format: cell-based, human rhinovirus
Protocol: as §1, §2, §3

HRV serotype 2 = assay: Reversibility of pleconaril binding; format: cell-based, human rhinovirus
Protocol: as §1, §2, §3

HRV serotype 3 = assay: Reversibility of pleconaril binding; format: cell-based, human rhinovirus
Protocol: as §1, §2, §3

HRV serotype 50 = assay: Reversibility of pleconaril binding; format: cell-based, human rhinovirus
Protocol: as §1, §2, §3

HRV serotype 5 = assay: Reversibility of pleconaril binding; format: cell-based, human rhinovirus; conditions: about 10 times IC50, then diluted 10,000-fold, plaque assay
Protocol: as §1, §2, §3

HRV serotype 89 = assay: Reversibility of pleconaril binding; format: cell-based, human rhinovirus
Protocol: as §1, §2, §3

HRV3 [4] = assay: Low pH inactivation; format: cell-based, human rhinovirus; conditions: 2 μM, pH 5.2, FIG. 4
Protocol: As a second indication of the direct interaction of the drug with the virion capsid, an experiment was conducted to examine the ability of pleconaril to protect HRV3 from low pH inactivation.
Approximately […] plaque forming units (PFU) of virus were incubated with 0.5% DMSO or 2 μM pleconaril (in 0.5% DMSO) overnight at 4° C. For HRV3, samples were diluted into sodium acetate buffer (1 M, pH 5.2 or pH 7.0) for 30 minutes on ice followed by neutralization with 2 volumes of 1M Tris-HCl, pH 8.0. All samples were extracted twice with chloroform prior to titration in the viral cytopathic effect assay on HeLa cells (see below).

Cc1cc(CCCOc2c(C)cc(-c3noc(C(F)(F)F)n3)cc2C)on1 [pleconaril, 3-[3,5-dimethyl-4-[3-(3-methyl-5-isoxazolyl)propoxy]phenyl]-5-(trifluoromethyl)-1,2,4-oxadiazole]
log P (log P): high | protein bound (human plasma proteins): > 99% | plasma accumulation [1]: approximately two | nasal tissue to plasma concentration ratio [2]: five | reduction in virus yield (HRV3 [3]; 2 μM, drug addition after attachment (0 hour timepoint)): < 1 log10 | inhibition at 2 µM (HRV3 [3]; Human rhinovirus sp., HRV3, present during the virus attachment period, read-out: inhibition of the yield of HRV3 from a single cycle of growth): > 90% | reversibility of binding to the virion (HRV serotype 14; HRV serotype 14): binds irreversibly | % Recovery of input infectious virus (% SD) (HRV serotype 14; serotype 14, about 10 times IC50, then diluted 10,000-fold, plaque assay): 16.4 (33.9) % | reversibility of binding to the virion (HRV serotype 1A; HRV-1A): reversible upon dilution | % Recovery of input infectious virus (% SD) (HRV serotype 1A; serotype 1A, about 10 times IC50, then diluted 10,000-fold, plaque assay): 85.4 (52.8) % | reversibility of binding to the virion (HRV serotype 2; HRV-2): reversible upon dilution | % Recovery of input infectious virus (% SD) (HRV serotype 2; serotype 2, about 10 times IC50, then diluted 10,000-fold, plaque assay): 65.8 (51.3) % | reversibility of binding to the virion (HRV serotype 3; HRV-3): reversible upon dilution | % Recovery of input infectious virus (% SD) (HRV serotype 3; serotype 3, about 10 times IC50, then diluted 10,000-fold, plaque assay): 92.8 (40.4) % | reversibility of binding to the virion (HRV serotype 50; HRV serotype 50): binds irreversibly | % Recovery of input infectious virus (% SD) (HRV serotype 50; serotype 50, about 10 times IC50, then diluted 10,000-fold, plaque assay): 11.9 (40) % | % Recovery of input infectious virus (% SD) (HRV serotype 5): 118 (53.5) % | reversibility of binding to the virion (HRV serotype 89; HRV serotype 89): binds irreversibly | % Recovery of input infectious virus (% SD) (HRV serotype 89; serotype 89, about 10 times IC50, then diluted 10,000-fold, plaque assay): 9.9 (100) % | protection from low pH inactivation (HRV3 [4]): protect HRV3 from low pH-induced degradation
